In ChEMBL document CHEMBL1201862, “PubChem BioAssay data set” (2004):
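All cell lines were grown in 96-well plates and treated with compound for 48 hours. Abbreviation: GI50, concentration required for 50% inhibition of growth.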 Activity calls are given as the source filed them. Cut-off read from the data, not from the text of the source: active = GI50 up to about 1.1 µM and inactive = higher.

Columns and labels:
Experiment in all cases: NCI tumour cell line growth inhibition, 48 h
[1] = tested on: 786-0
[2] = tested on: ACHN
[3] = tested on: BT-549
[4] = tested on: DU-145
[5] = tested on: HCT-15
[6] = tested on: HOP-92
[7] = tested on: MCF7
[8] = tested on: Malme-3M
[9] = tested on: NCI-H23
[10] = tested on: OVCAR-4
[11] = tested on: RPMI-8226
[12] = tested on: SF-295
[13] = tested on: SF-539
[14] = tested on: SK-MEL-28
[15] = tested on: SK-OV-3
[16] = tested on: SN12C
[17] = tested on: SNB-19
[18] = tested on: K562
[19] = tested on: T47D

| SMILES | GI50 [1] | GI50 [2] | GI50 [3] | GI50 [4] | GI50 [5] [µM] | GI50 [6] | GI50 [7] | GI50 [8] | GI50 [9] | GI50 [10] | GI50 [11] | GI50 [12] | GI50 [13] | GI50 [14] | GI50 [15] | GI50 [16] | GI50 [17] | GI50 [18] | GI50 [19] |
| --- | --- | --- | --- | --- | --- | --- | --- | --- | --- | --- | --- | --- | --- | --- | --- | --- | --- | --- | --- |
| C=CCOC(C)(C)C1=CCC(C)CC1 (stereo unspecified) | > 100 µM (inactive) | > 100 µM (inactive) | > 100 µM (inactive) | > 100 µM (inactive) | > 100 | > 100 µM (inactive) | > 100 µM (inactive) | > 100 µM (inactive) | > 100 µM (inactive) | > 100 µM (inactive) | > 100 µM (inactive) | > 100 µM (inactive) | > 100 µM (inactive) | > 100 µM (inactive) | > 100 µM (inactive) | > 100 µM (inactive) | > 100 µM (inactive) | – | – |
| CCCCCCCCCCCCCCCCP(=O)(O)OCC(N)C(=O)O (stereo unspecified) | 42 µM (inactive) | 22.3 µM (inactive) | – | > 100 µM (inactive) | 31.3 | 23.7 µM (inactive) | – | > 100 µM (inactive) | 90.4 µM (inactive) | 37.9 µM (inactive) | 21 µM (inactive) | 20.7 µM (inactive) | 26.6 µM (inactive) | > 100 µM (inactive) | 56.1 µM (inactive) | 41.5 µM (inactive) | 16.9 µM (inactive) | > 100 µM (inactive) | > 100 µM (inactive) |
| COC(=O)C(=O)C(C(=O)C(=O)Nc1nnc(S)[nH]1)c1nc2ccc([N+](=O)[O-])cc2nc1O (stereo unspecified) | > 100 µM (inactive) | 86.9 µM (inactive) | > 100 µM (inactive) | – | > 100 | > 100 µM (inactive) | 92.7 µM (inactive) | > 100 µM (inactive) | > 100 µM (inactive) | > 100 µM (inactive) | > 100 µM (inactive) | > 100 µM (inactive) | > 100 µM (inactive) | > 100 µM (inactive) | > 100 µM (inactive) | > 100 µM (inactive) | 44.7 µM (inactive) | 57.8 µM (inactive) | > 100 µM (inactive) |
| CC1=CC(=O)CC(C)(C)C1/C=C/C(C)=C/C=C/C(C)=C/C=C/C=C(C)/C=C/C=C(C)/C=C/C1=C(C)CC(O)CC1(C)C (stereo unspecified) | 22 µM (inactive) | 28.6 µM (inactive) | – | 24.4 µM (inactive) | 24.1 | 27.3 µM (inactive) | 16.3 µM (inactive) | – | 27.9 µM (inactive) | 37.9 µM (inactive) | 9.31 µM (inactive) | 60.8 µM (inactive) | 47.2 µM (inactive) | 28.4 µM (inactive) | > 100 µM (inactive) | – | – | 0.745 µM (active) | 30.9 µM (inactive) |
| OC1C#CCSCC#C/C=C\1 (stereo unspecified) | 3.58 µM (inactive) | > 100 µM (inactive) | > 100 µM (inactive) | > 100 µM (inactive) | > 100 | 62.2 µM (inactive) | 53.3 µM (inactive) | 47.1 µM (inactive) | 80.4 µM (inactive) | > 100 µM (inactive) | – | > 100 µM (inactive) | > 100 µM (inactive) | 89.5 µM (inactive) | > 100 µM (inactive) | 94 µM (inactive) | > 100 µM (inactive) | 17.9 µM (inactive) | – |
| COc1cc(C2SCC(=O)N2Cc2ccccc2)cc(OC)c1OC (stereo unspecified) | > 100 µM (inactive) | > 100 µM (inactive) | > 100 µM (inactive) | 22.1 µM (inactive) | > 100 | 13.2 µM (inactive) | > 100 µM (inactive) | – | > 100 µM (inactive) | > 100 µM (inactive) | > 100 µM (inactive) | > 100 µM (inactive) | > 100 µM (inactive) | > 100 µM (inactive) | > 100 µM (inactive) | > 100 µM (inactive) | > 100 µM (inactive) | > 100 µM (inactive) | – |
| COc1cc2cc(C(=O)N3CC(COS(C)(=O)=O)c4ccc(O)cc43)[nH]c2c(OC)c1OC (stereo unspecified) | < 0.0001 µM (active) | < 0.0001 µM (active) | – | < 0.0001 µM (active) | < 0.0001 | < 0.0001 µM (active) | < 0.0001 µM (active) | < 0.0001 µM (active) | < 0.0001 µM (active) | < 0.0001 µM (active) | < 0.0001 µM (active) | < 0.0001 µM (active) | < 0.0001 µM (active) | < 0.0001 µM (active) | – | < 0.0001 µM (active) | < 0.0001 µM (active) | < 0.0001 µM (active) | 0.000552 µM (active) |
| CCOCc1cc(=O)c2c(OC)cc3c(c2o1)CCC(C)(C)O3 | > 100 µM (inactive) | > 100 µM (inactive) | – | – | > 100 | 33.4 µM (inactive) | – | > 100 µM (inactive) | > 100 µM (inactive) | > 100 µM (inactive) | – | > 100 µM (inactive) | > 100 µM (inactive) | > 100 µM (inactive) | > 100 µM (inactive) | > 100 µM (inactive) | – | > 100 µM (inactive) | – |
| O=C(O)c1nc2cc(C(F)(F)F)ccc2nc1Nc1ccc(F)cc1 | 22.4 µM (inactive) | 12.3 µM (inactive) | 12.6 µM (inactive) | – | – | 13.5 µM (inactive) | 22.2 µM (inactive) | 12.4 µM (inactive) | 16 µM (inactive) | – | 4.17 µM (inactive) | 13.4 µM (inactive) | 17.5 µM (inactive) | 25.6 µM (inactive) | 30.7 µM (inactive) | – | 16.7 µM (inactive) | 13.5 µM (inactive) | 20.2 µM (inactive) |
